The test system of assay [1] is different microbial species: Candida spp., Escherichia coli, Klebsiella oxytoca, Pseudomonas aeruginosa, Enterococcus faecalis, Enterococcus faecium, MRSA …. Put plainly: Agar dilution antimicrobial susceptibility test, aerobic conditions. Conditions: 12.5 mM to 40 mM in agar, 37° C., 20 hours, 21 strains incl. ESBL and MRSA, FIG. 8. Background: Agar dilution tests growth on a series of plates holding different concentrations.
Description: The agar dilution method was used for antimicrobial susceptibility test. A series of plates (petri dishes; Greiner, Cat No. 933161) were prepared with 20 ml agar medium (Iso-Sensitest-Agar Ca. No. CM474, OXOID, Germany) to which various concentrations of EP (12.5 mM to 40 mM) were added. Control agar plates were prepared without EP. The plates are then inoculated with a suitable-standardized suspension of the test microbial species (10^4 cfu) using an automated spotter (spots 1-21). The agar plates were incubated under aerobic conditions at 37° C. for 20 hours. At the respective positions of the spots growth (if permissive under the selected conditions) will result in the formation of cell discs. The evaluation of the test results is performed by inspecting the sizes of these discs. […]

Assay [2] has as its target T1, glyoxalase I of human erythrocytes (Homo sapiens, UniProt Q04760).
T1 construct: from tissue; host or cells: human erythrocyte lysate
T1 sequence (Q04760 2-184 limits assumed): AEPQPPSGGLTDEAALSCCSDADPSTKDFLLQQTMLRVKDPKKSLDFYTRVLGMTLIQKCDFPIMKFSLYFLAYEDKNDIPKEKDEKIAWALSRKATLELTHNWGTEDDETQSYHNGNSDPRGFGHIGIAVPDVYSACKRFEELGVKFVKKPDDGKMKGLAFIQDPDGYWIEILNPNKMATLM
Put plainly: Enzymatic activity of human erythrocyte glyoxalase I (erythrocyte lysate). Conditions: 0-50 mM; FIG. 5. Format: biochemical. The protocol: The determination of glyoxalase I was performed as described above for the yeast enzyme. After the formation of the hemithioacetal, suitable amounts (5 to 100 μl) of an erythrocyte lysate were added to 1 ml of the measuring reagent to start the reaction. The erythrocyte lysate was prepared according to the instructions of Mannervik et al. (1982).
(§1) Glyoxalase activity (IU) corresponds to the amount of enzyme forming 1 μmol of S-D-lactoyl-glutathione/min.
Determination of glyoxalase I activity was performed according to the general protocol as described above. The influence of ethyl pyruvate on enzyme activity was investigated by addition of increasing concentrations of EP (Sigma; no. E4, 780-8; lot. S18972-513) (0-50 mM) to the measuring reagent.

The target in another assay is T2, yeast glyoxalase I (Saccharomyces cerevisiae, UniProt P50107).
T2 construct: purchased Sigma G-4252
T2 sequence (P50107 1-326): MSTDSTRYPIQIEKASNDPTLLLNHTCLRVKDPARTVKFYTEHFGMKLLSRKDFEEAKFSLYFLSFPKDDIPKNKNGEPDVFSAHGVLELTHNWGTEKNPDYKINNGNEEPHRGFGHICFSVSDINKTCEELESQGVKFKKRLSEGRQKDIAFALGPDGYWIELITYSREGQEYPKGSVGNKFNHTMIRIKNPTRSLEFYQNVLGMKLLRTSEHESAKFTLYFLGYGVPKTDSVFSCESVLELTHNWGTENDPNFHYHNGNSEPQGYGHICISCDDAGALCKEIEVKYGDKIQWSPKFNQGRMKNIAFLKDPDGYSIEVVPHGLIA
Put plainly: Enzymatic activity of yeast glyoxalase I (formation of S-D-lactoyl-glutathione, 240 nm). The class given is biochemical. As to conditions: increasing concentrations (0-30 mM in Example 5); FIG. 1-3; listed as EP. How it is done:
Measuring glyoxalase I (E.C.4.4.1.5, lactoyl-glutathione lyase Sigma, G-4252) was performed according to the instructions of McLellan and Thornalley (1989). The principle is based on measuring the initial rate of formation of S-D-lactoyl-glutathione from methylglyoxal (Sigma, MO252, 40%) and reduced L-glutathione (Aldrich, G-4251, >99%). The formation of the product is observed using the extinction coefficient e=2.86 mM-1 cm-1 at 240 nm. The measurement was performed in 50 mM sodium phosphate buffer, pH 7.0. For that purpose 2 mM methylglyoxal and 2 mM reduced glutathione were incubated for 2 minutes at 30° C. for the formation of the hemithioacetal. Thereafter 20 μl of a 1 to 1000 dilution of the glyoxalase I (Sigma, G-4252) was added to 1 ml of the measuring reagent to start the reaction.
as §1
Determination of glyoxalase I activity was performed according to the general protocol as described above. The influence of ethyl pyruvate on enzyme activity was investigated by addition of increasing concentrations of EP (Sigma; no. E4, 780-8; lot. S18972-513) to the measuring reagent.
Determination of glyoxalase I activity was performed according to the general protocol as described above. The influence of compounds of the general formula (I), (II), and (III) on the activity of the enzyme was investigated by addition of increasing concentrations of these compounds to the preparation. The IC50-values were calculated from inhibition curves of each compound.
Determination of glyoxalase I activity was performed according to the general protocol as described above. The influence of 2-oxopropanethioic acid S-ethyl ester on the activity of the enzyme was investigated by addition of increasing concentrations of SE to the preparation for the measurement.
Determination of glyoxalase I activity was performed according to the general protocol as described above. The influence of effectors on the enzymatic activity was investigated by addition of increasing concentrations (0-30 mM) of EP (Sigma; no. E4, 780-8; lot. S18972-513) (triangle), BP (prepared according to the instructions of patent JP 11080089; 98%) (circle) and BL (Fluka, 69819; lot. 443090/1 21503090) (squares) to the measuring reagent (FIG. 3).

Assay [3] concerns the target T3, glyoxalase II of human erythrocytes (Homo sapiens, UniProt Q16775).
T3 construct: from tissue; host or cells: human erythrocyte hemolysate
The assay can be described thus: Enzymatic activity of human erythrocyte glyoxalase II (erythrocyte hemolysate). The class given is biochemical. Conditions: 0-20 mM; FIG. 6. The protocol:
The determination of erythrocyte glyoxalase II (E.C.3.1.2.6., hydroxyacyl glutathione hydrolase) was performed according to the instructions of McLellan and Thornalley (1989). The principle is based on determining the initial hydrolysis of S-D-lactoyl-glutathione (L 7140, Sigma-Aldrich Chemie GmbH) in the presence of low amounts of a cell extract. Hydrolysis is observed on the basis of the reduction of the extinction at 240 nm (e=−3.1 mM-1 cm-1). Glyoxalase II activity (IU) correlates to the amount of enzyme hydrolysing 1 μmol of S-D-lactoyl-glutathione/min. The measurement was performed in 100 mM Tris-HCl buffer, pH 7.4. For this purpose 0.4 mM S-D-lactoyl-glutathione was added to 1 ml of the measuring reagent and the reaction was started by addition of suitable amounts (5-100 μl) of an erythrocyte hemolysate. The erythrocyte lysate was prepared according to the instructions of Mannervik et al. (1982).
Determination of glyoxalase II activity was performed according to the general protocol as described above. The influence of ethyl pyruvate on the activity of the enzyme was investigated by addition of increasing concentrations of EP (Sigma, no. E 4, 780-8; lot. S18972-513) (0-20 mM) to the measuring reagent.

Entries after “also recorded” stand apart in the source; their conditions may differ.

As to `CCOC(=O)C(C)=O` [Ethyl pyruvate], the “Effect on growth of different microbial species” value in assay [1] was “effectively inhibits the growth and proliferation of different microbial species”. In addition, the “Inhibition of the enzymatic activity of glyoxalase I of human erythrocytes” value in assay [2] is “inhibits the reaction of glyoxalase I of human erythrocytes in a concentration dependent manner”. For the same compound, the “Influence on the enzymatic activity of yeast glyoxalase I” value at yeast glyoxalase I is “inhibits the reaction of yeast glyoxalase I in a concentration dependent manner; also recorded: inhibit the activity of glyoxalase I in a concentration dependent manner”. In assay [3], the “Inhibition of the enzymatic activity of glyoxalase II of human erythrocytes” value was “inhibits the reaction of glyoxalase II in a concentration dependent manner”.

The record behind these values is patent publication US20100204161A1, “Substances and Pharmaceutical Compositions for the Inhibition of Glyoxalases and Their Use Against Bacteria” (BIOMAC PRIVATINSTITUT FUR MEDIZINISHE UND ZAHMEDIZ …, priority 2005, published 2010).
